Reference: patent US10858626B2, “Adoptive immunotherapy for treating cancer” (UNIVERSITÉ DE LAUSANNE, priority 2014, dated 2020)

Assays:
kinases = conditions: other kinases inhibited; cited from earlier work
breast tumor fragments = test: Expansion of T cells in vitro from breast tumor fragments treated with kinase inhibitors (Example 2); assay type: cell-based, human; conditions: first 20 days of culture, high doses IL-2, 12 h inhibitor treatment
Text: The fragments were washed, placed in culture as previously described and 20 days later the number of T cells obtained were counted. Antibodies and multimers of MHC class I: antibodies specific for CD4, CD8, CD3 and CD28 were from Beckton Dikinson. Antibodies specific for PD-1 were from Affimetrix eBioscience (clone J105, PD-1 PerCP-eF710), anti-LAG-3 antibodies were from Enzo Life Science (clone 17B4, LAG-3-FITC), anti-CD137 antibodies were from Biolegend (clone 4B4-1, CD137-BV605). Fluorescently labelled Her2/neu MHC-classI multimers were from TCMetrix (Epalinges, Swizerland).

TIE-2 = TIE-2 (Homo sapiens, UniProt Q02763); conditions: read-out: IC 50 TIE-2; cited from earlier work
VEGFR-1 = VEGFR-1 (Homo sapiens, UniProt P17948); conditions: cited from earlier work
Sequence of VEGFR-1 (P17948 27-1338, species assumed): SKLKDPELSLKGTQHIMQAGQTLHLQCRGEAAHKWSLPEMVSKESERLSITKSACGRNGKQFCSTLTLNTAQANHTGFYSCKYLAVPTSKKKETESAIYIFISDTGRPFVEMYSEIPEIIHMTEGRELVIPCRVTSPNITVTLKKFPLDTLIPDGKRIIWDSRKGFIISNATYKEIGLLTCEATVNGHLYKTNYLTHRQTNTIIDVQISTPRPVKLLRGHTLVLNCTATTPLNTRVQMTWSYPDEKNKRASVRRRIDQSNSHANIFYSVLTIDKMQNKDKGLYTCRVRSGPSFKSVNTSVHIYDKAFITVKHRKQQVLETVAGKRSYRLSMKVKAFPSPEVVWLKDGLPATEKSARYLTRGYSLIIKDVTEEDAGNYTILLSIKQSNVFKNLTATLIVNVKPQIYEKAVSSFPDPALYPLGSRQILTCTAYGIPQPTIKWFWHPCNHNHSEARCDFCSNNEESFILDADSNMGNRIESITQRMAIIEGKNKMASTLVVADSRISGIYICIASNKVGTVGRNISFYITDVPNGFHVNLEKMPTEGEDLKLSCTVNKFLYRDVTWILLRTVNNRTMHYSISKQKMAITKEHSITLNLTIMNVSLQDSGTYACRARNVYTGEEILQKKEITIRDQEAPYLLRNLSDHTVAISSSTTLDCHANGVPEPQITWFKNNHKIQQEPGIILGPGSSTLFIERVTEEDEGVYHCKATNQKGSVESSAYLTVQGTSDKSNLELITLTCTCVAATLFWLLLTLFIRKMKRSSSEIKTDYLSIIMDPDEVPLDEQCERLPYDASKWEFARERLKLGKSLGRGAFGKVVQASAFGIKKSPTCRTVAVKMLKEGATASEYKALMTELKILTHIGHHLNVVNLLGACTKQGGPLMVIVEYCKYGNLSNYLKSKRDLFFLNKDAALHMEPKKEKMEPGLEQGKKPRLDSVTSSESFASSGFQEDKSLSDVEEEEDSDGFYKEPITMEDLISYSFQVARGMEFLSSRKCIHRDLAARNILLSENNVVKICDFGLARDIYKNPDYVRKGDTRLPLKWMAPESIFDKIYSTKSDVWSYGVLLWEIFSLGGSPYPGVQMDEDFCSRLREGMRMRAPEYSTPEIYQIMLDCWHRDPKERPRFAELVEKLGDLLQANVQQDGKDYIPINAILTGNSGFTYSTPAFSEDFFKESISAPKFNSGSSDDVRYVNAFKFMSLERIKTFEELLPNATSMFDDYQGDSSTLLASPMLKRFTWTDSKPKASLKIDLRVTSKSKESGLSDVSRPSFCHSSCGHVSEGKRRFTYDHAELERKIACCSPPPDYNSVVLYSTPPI

Sequence of TIE-2 (Q02763 23-1124, species assumed): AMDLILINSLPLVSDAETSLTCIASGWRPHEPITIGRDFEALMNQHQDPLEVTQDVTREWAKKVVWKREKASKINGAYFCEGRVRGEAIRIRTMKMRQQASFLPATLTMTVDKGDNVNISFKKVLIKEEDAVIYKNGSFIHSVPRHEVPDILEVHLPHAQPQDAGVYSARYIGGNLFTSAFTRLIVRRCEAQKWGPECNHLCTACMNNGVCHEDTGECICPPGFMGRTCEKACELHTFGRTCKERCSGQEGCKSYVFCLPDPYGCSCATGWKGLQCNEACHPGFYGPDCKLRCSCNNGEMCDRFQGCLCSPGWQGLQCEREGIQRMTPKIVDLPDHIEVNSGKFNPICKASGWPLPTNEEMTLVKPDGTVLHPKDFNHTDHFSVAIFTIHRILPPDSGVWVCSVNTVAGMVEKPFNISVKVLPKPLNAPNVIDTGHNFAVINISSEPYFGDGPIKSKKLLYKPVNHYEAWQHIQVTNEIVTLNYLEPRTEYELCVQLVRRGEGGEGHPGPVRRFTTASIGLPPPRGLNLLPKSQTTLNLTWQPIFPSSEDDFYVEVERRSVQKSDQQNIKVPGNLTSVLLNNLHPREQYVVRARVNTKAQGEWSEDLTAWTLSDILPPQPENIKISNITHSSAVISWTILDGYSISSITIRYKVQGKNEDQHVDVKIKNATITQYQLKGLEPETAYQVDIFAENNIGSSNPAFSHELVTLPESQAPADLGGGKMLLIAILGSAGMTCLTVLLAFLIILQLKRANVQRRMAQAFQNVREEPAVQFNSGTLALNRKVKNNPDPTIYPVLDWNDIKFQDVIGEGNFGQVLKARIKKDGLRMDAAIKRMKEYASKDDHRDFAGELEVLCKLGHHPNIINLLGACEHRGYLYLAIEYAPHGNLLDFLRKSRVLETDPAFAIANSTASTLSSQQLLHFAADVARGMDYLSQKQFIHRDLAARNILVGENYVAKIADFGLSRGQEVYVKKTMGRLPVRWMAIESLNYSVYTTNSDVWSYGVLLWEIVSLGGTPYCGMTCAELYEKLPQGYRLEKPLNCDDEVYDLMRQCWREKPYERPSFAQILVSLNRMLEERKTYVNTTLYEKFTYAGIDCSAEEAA

| Structure (SMILES) | Additional inhibition reported (kinases) | IC50 (TIE-2) | further results |
| --- | --- | --- | --- |
| COc1cc2nccc(Oc3ccc(NC(=O)Nc4cc(C)on4)c(Cl)c3)c2cc1OC [Tivozanib] | PDGFR, c-Kit |  |  |
| Clc1ccc(Nc2nnc(Cc3ccncc3)c3ccccc23)cc1 [PTK787, Vatalanib] | c-Kit, PDGFR |  |  |
| COc1ccc2cc(-c3[nH]c(-c4ccc([S+](C)[O-])cc4)nc3-c3ccncc3)ccc2c1 (centres unmarked) [SB633825, 4-(5-(6-methoxynaphthalen-2-yl)-2-(4-(methylsulfinyl)phenyl)-1H-imidazol-4-yl)pyridine] | p38, PDGFR1 |  | Number of T cells expanded per 1 mm3 of breast tumor tissue (breast tumor fragments): more than one million |
| Cc1ccc(OC(=O)N(CC(=O)N[C@@H](C)C2CCCCC2)Cc2ccc(-c3cncc(C(=O)O)c3)cc2)cc1 [Compound 7, 5-[4-[[[2-[[(1S)-1-Cyclohexylethyl]amino]-2-oxoethyl][(4methylphenoxy)carbonyl]amino]methyl]phenyl]-3-pyridinecarboxylic acid] |  | 300 nM |  |
| O=C(Nc1cc(Oc2cc(F)c(NC(=O)C3(C(=O)Nc4ccc(F)cc4)CC3)cc2F)ccn1)C1CC1 [Altiratinib (DCC-2701), Altiratinib] | Met | 2 nM |  |
| CNC(=O)c1cc(Oc2ccc(NC(=O)Nc3cc(C(C)(C)C)nn3-c3ccc4ncccc4c3)c(F)c2)ccn1 [Rebastinib (DCC-2036), Rebastinib] |  |  | IC50 (VEGFR-1): 12 nM |
